Active and inactive are the calls of the source. The calls are words filed in the database; no cut-off is given here.
Experiments:
[1] = molecular target: T1, Riboflavin-binding protein (Gallus gallus) (UniProt P02752); assay: Binding affinity to chicken riboflavin binding protein assessed as binding energy by fluorescence based analysis
T1 sequence (whole entry): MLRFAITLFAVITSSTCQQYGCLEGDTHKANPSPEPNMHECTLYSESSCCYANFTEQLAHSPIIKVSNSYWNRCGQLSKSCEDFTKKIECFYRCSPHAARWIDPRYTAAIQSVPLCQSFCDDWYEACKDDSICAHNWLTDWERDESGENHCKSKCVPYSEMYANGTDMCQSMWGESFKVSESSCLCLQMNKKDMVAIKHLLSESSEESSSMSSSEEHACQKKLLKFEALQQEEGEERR

[2] = molecular target: T1, Riboflavin-binding protein (Gallus gallus); assay: Binding affinity to chicken riboflavin binding protein assessed as decrease in fluorescence intensity at upto 250 uM by fluorescence based assay

Cc1cc2nc3c(=O)[nH]c(=O)nc-3n(CCCCCCO)c2cc1C
Activity [1]: 2 kcal/mol | Activity [2]: Active

Cc1cc2nc3c(=O)[nH]c(=O)nc-3n(C[C@H](O)[C@H](O)[C@H](O)CO)c2cc1C
Activity [1]: -11.9 kcal/mol | Activity [2]: Active
